Experiments:
[1] = Trypan blue exclusion test (cytotoxicity of BP1 and BP2); format: cell-based; conditions: even at concentrations above 5 mM
[2] = Toxicity test in tumor-free immunosuppressed mice; format: in vivo; conditions: one injection per day for one week
Description: Tumor-free immunosuppressed mice were treated with BP1 and BP2 at doses ranging from 0.06 to 6 mg per injection and per animal. Mice received one injection per day for one week. Animals were weighed before, during and after treatment.

[3] = test system: FRCjun MRA, a murine fibrosarcoma cell line; experiment: MTT cell proliferation test, FRCjun MRA cells; format: cell-based; conditions: Mus musculus; 2 mM, after 48 h of culture, FRCjunMRA cells
Description: (§1) The bisphosphonates BP1 and BP2 were tested in different cell lines: • FRCjun MRA, a murine fibrosarcoma cell line produced by transfection of FR3T3 cells by the oncogene jun-4, • A 431 human carcinoma cells. These cells harbor a VEGF (vascular endothelial growth factor) autocrine loop and, after implantation in immunosuppressed mice, induce rapid development of highly angiogenic tumors. • MDA MB 435 human breast tumor cells, • HUV-EC-C, transformed human umbilical cord endothelial cells (HUVEC), • BBC, bovine cerebral capillary endothelial cells.
(§2) Cell proliferation in the presence of different concentrations of BP1 or BP2 was measured by an MTT test after 24, 48 and 72 h of culture.

[4] = test system: MDA MB 435 human breast tumor cells; experiment: MTT cell proliferation test, MDA MB 435 cells; format: cell-based; conditions: 2 mM, after 48 h of culture
Description: as §1, §2

[5] = test system: A 431 human carcinoma cells; experiment: MTT cell proliferation test, A 431 cells; format: cell-based; conditions: 2 mM
Description: as §1, §2

[6] = test system: A 431 tumors; experiment: Intratumoral angiogenesis of A 431 tumors (GSL 1 immunohistochemistry, image analysis); format: in vivo, mice; conditions: observed starting from the lowest doses (0.006 mg/injection)
Description: Animals were sacrificed and the tumors excised, then weighed, fixed, embedded in paraffin and sliced. Endothelial cells from tumor blood vessels laid down during tumor angiogenesis were visualized by immunohistochemical methods (GSL 1). Tumor angiogenesis was evaluated by image analysis with NIH image software.

[7] = test system: A 431 tumors; experiment: In vivo growth of subcutaneous A 431 tumors in immunosuppressed mice; conditions: for inhibition of the growth of A 431 tumors: 0.6 mg/injection/mouse, twice weekly s.c. near the tumor, after 5 weeks of treatment, P<0.05
Description: A 431 cells were injected subcutaneously into immunosuppressed mice. The mice developed tumors within one week. Tumor-bearing mice were assigned randomly to a control group or to treatment groups receiving different concentrations of BP1 and BP2.
Mice received twice weekly by subcutaneous injection near the tumor either 0.1 ml of PBS alone for the controls (n=6), or PBS containing either BP1 or BP2 at the following doses: 0.006 (n=6); 0.06 (n=6) or 0.6 mg/injection (n=6). Tumors were measured weekly and their volume V calculated by the formula: V=(4/3)πR1^2R2 wherein R1 is radius 1 and R2 radius 2, with R1<R2.

[8] = test system: acute hepatitis; experiment: Liver histology (HES) in nude mice having an acute hepatitis; format: in vivo; conditions: 80 mg/kg or 160 mg/kg s.c., twice a week for five weeks
Description: The study is carried out on nude mice having an acute hepatitis. The mice are divided in two groups, one being treated with sodium phenylacetate bisphosphonate, whilst the second is not. Phenylacetate bisphosphonate is administered to the treated mice sub-cutaneously (80 mg/kg or 160 mg/kg), twice a week for five weeks. The mice are sacrificed and the liver is histologically analyzed after HES (method of Hematoxiline Eosine Staining).

[9] = test system: MCF7-ras cells; experiment: DNA degradation (agarose gel electrophoresis), MCF7-ras cells; format: cell-based; conditions: 10 mM, after 96 hours
Description: (§3) The cell apoptosis is confirmed by the method of DNA degradation. MCF7 and MCF7-ras cells are cultivated (5×10^5 cells in T25 flasks). After 24 hours, the cells are washed, and then cultivated in DMEM medium with 10% of foetal calf serum; phenylacetate bisphosphonate (10 mM) is added to one group, and no phenylacetate bisphosphonate is added to the other group.
(§4) After 96 hours, the cell extract containing the fragmented DNA is incubated with 0.5 mg/ml of RNase A at 37° C. for one hour, then with 0.5 mg/ml of proteinase K for one hour at 37° C. After incubation, the fragmented DNA is precipitated by isopropanol and then dissolved in 10 mM of Tris-HCl (pH 8) […], 5% of glycerol and 0.05% bromophenol blue. The fragmented DNA separated by electrophoresis on agarose gel at 1% is marked with ethidium bromide and photographed in UV.

[10] = test system: MCF7-ras cells; experiment: Apoptosis by Annexine V-FITC / propidium iodide, MCF7-ras cells; format: cell-based; conditions: 10 mM, after 4 hours of treatment
Description: (§5) In order to determine the nature of the toxicity of sodium phenylacetate bisphosphonate, MCF7 and MCF7-ras cells are cultivated, and then washed after 24 hours, and cultivated for 3 hours in DMEM medium with 10% of foetal calf serum. Phenylacetate bisphosphonate (10 mM) is added to one group but not to the other group. Apoptosis is determined by the test of Annexine V conjugated with FITC antibody. Propidium iodide is used in order to determine early apoptosis (positive staining for Annexine V and negative staining with propidium iodide) and late apoptosis (positive staining with Annexine V and with propidium iodide).

[11] = test system: MCF7-ras tumors; experiment: Anti-angiogenic effect in MCF7-ras tumors, GSL1 lectin method; format: in vivo, mice
Description: The anti-angiogenic was verified by the GSL1 lectin method.
By using GSL1 lectin, angiogenesis is determined and identified by the red coloration staining of endothelial cells with anti-GSL1 antibody. It is noted that this angiogenesis is inhibited by the treatment of the tumors with phenylacetate bisphosphonate. This effect is partial but important (80%) at the 80 mg/kg dose. and complete at 160 mg/kg.

[12] = test system: MCF7-ras tumors; experiment: In vivo antitumor effect on MCF7-ras tumors in female athymic nude mice
Description: Inoculation of 4×10^6 MCF7-ras cells in female athymic nude mice is made sub-cutaneously in a 0.1 ml volume of DMEM, which induces 70% of tumors after three weeks.
Treatment with phenylacetate bisphosphonate begun when the mean volume of the tumors was 550 mm^3. The animals are divided in two groups, on receiving phenylacetate bisphosphonate, and the other no. Phenylacetate bisphosphonate is injected sub-cutaneously and peritumorally, twice a week, during 5 weeks, and the doses are 80 mg/kg (5 cases) and 160 mg/kg (6 cases).

[13] = test system: MCF7 cells; experiment: DNA degradation (agarose gel electrophoresis), MCF7 cells; format: cell-based; conditions: 10 mM, after 96 hours
Description: as §3, §4

[14] = test system: MCF7-ras cells; experiment: MCF7-ras cell growth and viability (Trypan blue test); format: cell-based; conditions: for toxicity (cell viability, Trypan blue): 8 and 10 mM
Description: MCF7-ras cells are cultivated (20,000 cells/well), on a dish of 24 wells. After incubation for 24 hours, the medium (DMEM with 10% foetal calf serum) is replaced with the same medium to which are added various concentrations of phenylacetate bisphosphonate (2 mM, 4 mM, 6 mM, 8 mM and 10 mM). The cells are incubated for 1 to 4 days at 37° C. The cell viability is controlled by the Trypan blue test.

[15] = test system: MCF7-ras cells; experiment: Reversibility of proliferation inhibition, tritiated thymidine incorporation; format: cell-based; conditions: 10 days treatment, thymidine after 15 days
Description: In order to check the reversibility of the effect of phenylacetate bisphosphonate, MCF7-ras cells have been treated with increasing concentrations of phenylacetate bisphosphonate for 10 days, the medium being changed every two days. The cells are divided in two groups. The DMEM medium supplemented with 10% of foetal calf serum is added to the first group, and the same medium with 10 mM of phenylacetate bisphosphonate is added to the second group, the medium being changed every two days. After 15 days, tritiated thymidine is added during 4 hours and the radioactivity of the suspension is determined by using a beta liquid scintigraphic counter (Beckman).

[16] = test system: MCF7-ras tumors; experiment: Pro-apoptotic effect in MCF7-ras tumors, M30 antibody staining; format: in vivo, mice
Text: Further, the proapoptotic effect of phenylacetate bisphosphonate is confirmed by the technique of antibody staining. The staining of apoptotic cells is made by the M30 antibody which recognises the specific site of caspases on the cytokeratine 18 filaments produced by the epithelial cells. Such filaments rapidly aggregate in the cells in early apoptosis, by hyperphosphorylation of cytokeratines. By this cytoplasmic staining, granular structures are observed inside the cytoplasm, which corresponds to cells in late apoptosis.

[17] = test system: MCF7 cells; experiment: Apoptosis by Annexine V-FITC / propidium iodide, MCF7 cells; format: cell-based; conditions: 10 mM, after 4 hours of treatment
Description: as §5

## COP(=O)(O)C(O)(Cc1ccccc1)P(=O)(O)OC (centres unmarked) [BP2]
[1]
  cytotoxicity (trypan blue exclusion): do not induce cytotoxicity
[2]; all doses tested (0.06–6 mg/injection)
  signs of toxicity such as hair loss, diarrhea, infection or anemia: no signs of toxicity
[3]
  inhibition at 2000 µM: 40%
[4]
  inhibition at 2000 µM: 60%
[5]; after 48 h of culture
  inhibition at 2000 µM: 30%
[5]; after 72 h, P<0.05
  inhibition at 2000 µM: 80%
[6]
  inhibition of intratumoral angiogenesis (endothelial cell area per unit of area): significant decrease in endothelial cell area per unit of area
[7]
  inhibition of the growth of A 431 tumors: 56%
[7]; A 431 tumors in mice
  comparative in vivo efficacy: greater efficacy than BP1

## O=P(O)(O)C(O)(Cc1ccccc1)P(=O)(O)O [BP1, reference compound]
[1]
  cytotoxicity (trypan blue exclusion): do not induce cytotoxicity
[2]; doses less than 6 mg/injection
  signs of toxicity such as hair loss, diarrhea, infection or anemia: no signs of toxicity
[6]
  inhibition of intratumoral angiogenesis (endothelial cell area per unit of area): significant decrease in endothelial cell area per unit of area
[7]
  inhibition of the growth of A 431 tumors: 40%

## O=P(O)(O)C(O)(Cc1ccccc1)P(=O)(O)O [phenylacetate bisphosphonate]
[8]
  hepatic toxicity noted in treated mice: 4 cases out of 5
[9]
  degradation of DNA: dramatic degradation of DNA
[10]; MCF7-ras cells
  percentage of cells in late apoptosis: 53%
[10]; MCF7-ras compared with MCF7
  percentage of cells in early apoptosis: almost identical in the two cell types
[11]; 80 mg/kg dose
  inhibition of tumor angiogenesis: 80%
[11]; 160 mg/kg
  inhibition of tumor angiogenesis: complete
[12]; 80 mg/kg dose
  tumor growth when the treatment is stopped: tumor growth relapsed is observed
[12]; 160 mg/kg dose
  tumor growth when the treatment is stopped: blocked for at least three weeks
[12]; 80 and 160 mg/kg s.c. peritumorally, twice a week, 5 weeks, at the end of the treatment
  inhibition of the growth of the tumors: irreversible and dose dependent
[12]; even when the treatment is applied during a long period of time
  toxic effect in vivo: without any toxic affect
[12]; first five or six weeks of treatment
  proliferation of MCF7-ras cells and growth of mammary tumors in vivo: irreversibly blocks
[12]; treated MCF7-ras tumors
  immunohistologic analysis of the tumors: what the decrease in tumor growth is related to: induction of apoptosis, to a sharp decrease of angiogenesis of the tumor and induction of fibrose in the tumor
[13]
  degradation of DNA: dramatic degradation of DNA
[14]; by the fourth day of culture
  toxicity (cell viability, Trypan blue): 50–60%
[14]; three first days of culture
  toxicity (cell viability, Trypan blue): 10%
[14]; concentrations lower than 6 mM, three first days of culture
  effect on cell growth: cytostatic
[15]; dose above 4 mM
  reversibility of the inhibition of cell proliferation: irreversible
[15]; dose of 2 mM
  reversibility of the inhibition of cell proliferation: partially reversible
[16]; 80 mg/kg dose
  state of tumor cells (M30 / cytokeratine 18 staining): apoptosis
[16]; 160 mg/kg dose
  state of tumor cells (M30 / cytokeratine 18 staining): aponecrosis
[17]; MCF7 cells
  percentage of cells in late apoptosis: 22%
[17]; MCF7 compared with MCF7-ras
  percentage of cells in early apoptosis: almost identical in the two cell types

— patent US7005533B2, “Bisphosphonate derivatives, their preparations and uses” (Universite Paris 13, priority 2001, dated 2006)
